Measurements: US20230150922A1, “Fluorinated Derivatives of Gabapentin and Methods of Use Thereof” (The General Hospital Corporation, priority 2020, published 2023)
Where two headings read alike, the source gives them in different places.

Assays:
PET imaging of mice = conditions: FIG. 3F
Procedure: microPET/CT: mice and rats were anesthetized with isoflurane and positioned in the bed of a microPET/CT instrument. […] Animals were imaged using dynamic PET from 0 to 120 min to provide greatest contrast.
Data analysis: PET images were reconstructed using the scanner software and a rat brain atlas automatically fitted to the data using VivoQuant. Time activity curves (TACs) were extracted for multiple brain regions and spinal cord segments (lumbar, thoracic and cervical cord).

[1] = PET imaging in rhesus macaques, baseline and gabapentin blocking scan; conditions: for specific (displaceable) binding in brain by PET: coinjection of gabapentin (5 mg/kg); for brain penetration by PET: ~5 mCi i.v.
Source text: General imaging procedure: The rhesus monkey was sedated by intramuscular injection of ketamine in its housing facility. Following sedation, the animal was intubated and placed inside a primate transport cart. The animal was transported to the scanner room and laid on the scanner bed in supine position. […] Vital signs including heart rate, respiratory rate, SpO2, exhaled CO2, blood pressure and temperature were continuously monitored for the duration of the scan. One intravenous catheter was placed in the saphenous vein for administration of the tracer. One intraarterial catheter was placed in the posterior tibial artery for blood sampling. […] Selected plasma samples were analyzed for radiometabolites using radioHPLC. MRI was coregistered to the PET/CT and TACs extracted for each brain region defined on an MR atlas.
Study design: We scanned two male rhesus macaques. Each monkey was scanned two times. In the first session, we performed 3h dynamic scans (baseline) of each monkey. On the second session, the monkey underwent a blocking scan with coinjection of gabapentin (5 mg/kg).
Data analysis: Pharmacokinetic modeling using metabolite-corrected arterial input function was performed. Volume of distribution (VT), binding potential (BP) other parameters were calculated.

[2] = cited from earlier work; for patients with decreases in self-reported pain: oral

## NCC1(CC(=O)O)CCC(F)CC1 (stereo not drawn) [cis-4F-GBP]
PET imaging of mice
  brain entry by PET: get into the brain

## NC[C@]1(CC(=O)O)CC[C@H]([18F])CC1 [cis-[^18F]4F-GBP, cis-[^18F]4-fluoro-gabapentin]
[1]
  specific (displaceable) binding in brain by PET: clear specific (displaceable) binding
  brain penetration by PET: significant brain penetration
[1]; listed as cis isomer
  specific (displaceable) binding in brain by PET: partial displacement

## NCC1(CC(=O)O)CCCCC1 [gabapentin]
[2]; diabetic neuropathy
  patients with decreases in self-reported pain: 52%
[2]; postherpetic neuralgia
  patients with decreases in self-reported pain: 46%
[2]; trigeminal neuralgia, 43 out of 92 subjects
  subjects with reduction in facial pain: 46%

## NC[C@]1(CC(=O)O)CC[C@@H](F)CC1 [trans-4F-GBP]
PET imaging of mice
  brain entry by PET: get into the brain

## NCC1(CC(=O)O)CCC([18F])CC1 (stereo not drawn) [trans-[^18F]4F-GBP, trans-[^18F]4-fluoro-gabapentin]
[1]
  brain penetration by PET: significant brain penetration
